Several values for one entry are separate records, joined by “and”; a condition that tells them apart may be missing. Equal entries are not always repeated.
Experiments:
[1] = Example 1: open 42-day study in top wrestlers, body weight and body composition by DEXA; format: in vivo, human; details: individual subjects 1-7; after 42 days, 0.496 g thrice daily orally
[2] = Example 1: subjects' reports of muscle pain, stiffness, aches, power performance and adverse effects; format: in vivo, human
From the text: In order to assess the effects of HICA (α-hydroxy-isocaproic acid) on exercise induced muscle pain and body composition, 0.496 g of HICA (produced in VTT Technical Research Centre of Finland, Helsinki) was given thrice daily after intensive training sessions to 7 healthy volunteers for 42 days in an open study. The volunteers were national top wrestlers, weighing 79.7+/−4.5 kg (mean+/−SD) and aging 26+/−6 years (mean+/−SD). They had at least 10 training sessions a week, each lasting from 1.5 to 2.5 hours.
The subjects took HICA orally as liquid (62.5 g HICA dissolved in 630 ml water and buffered by NaOH to pH 3.8). The single dose taken three times a day after each training session was 5 ml (containing […] of HICA) of the solution mixed with apple juice. On those days they had less than three training session they took extra doses of HICA so that 3 doses were taken each day. The total daily dose was 1488 mg of HICA.
Subjects were asked to report all feelings they would associate with the treatment with HICA, e.g. pain, stiffness or aches in muscles felt during and after the training sessions.

[3] = Example 1: open 42-day study in top wrestlers, body weight and body composition by DEXA; format: in vivo, human
From the text: (§1) In order to assess the effects of HICA (α-hydroxy-isocaproic acid) on exercise induced muscle pain and body composition, 0.496 g of HICA (produced in VTT Technical Research Centre of Finland, Helsinki) was given thrice daily after intensive training sessions to 7 healthy volunteers for 42 days in an open study. The volunteers were national top wrestlers, weighing 79.7+/−4.5 kg (mean+/−SD) and aging 26+/−6 years (mean+/−SD). They had at least 10 training sessions a week, each lasting from 1.5 to 2.5 hours. During 6 weeks preceding the HICA period there were no essential changes in the body weight of the wrestlers. At least for 6 weeks before and during the trial daily diets and the number, intensity, and length of daily training sessions were kept constant. Before the study the subjects underwent a medical examination. Twenty ml of blood was taken for chemical assays and the body weight and body composition were assessed by dual-energy X-ray absorptiometry (DEXA; LUNAR GE Medical Systems) just before starting the 42-day HICA intake. The subjects took HICA orally as liquid (62.5 g HICA dissolved in 630 ml water and buffered by NaOH to pH 3.8). The single dose taken three times a day after each training session was 5 ml (containing […] of HICA) of the solution mixed with apple juice. On those days they had less than three training session they took extra doses of HICA so that 3 doses were taken each day. The total daily dose was 1488 mg of HICA.

[4] = Example 1: blood pressure, heart rate and clinical chemistry before and after HICA; format: in vivo, human; details: n = 7, after 42 days
From the text: as §1, with “hours.” for “hours. During 6 weeks preceding the HICA period there were no essential changes in the body weight of the wrestlers. At least for 6 weeks before and during the trial daily diets and the number, intensity, and length of daily training sessions were kept constant.”

[5] = commercially available colorless crystals; cited from earlier work
[6] = Example 2: subjective muscle aches and laboratory tests; format: in vivo, human; details: one basket ball player
Protocol: (§2) A basket ball player (weight 83.7 kg; BMI 26.8 kg/m^2) took after intensive daily training sessions 0.496 g of HICA three times a day for 42 days in an identical design as described in Example 1. The composition of their soft tissue was analyzed in detail. DEXA-results were analyzed by a software discriminating successfully between bone, fat and lean body mass.

mice = details: iv. in mice, Na-salt; cited from earlier work
[7] = Example 2: basket ball player case study, body composition by DEXA; format: in vivo, human
Protocol: as §2

[8] = Barlas et al.; 11-day study period, 60 study subjects; cited from earlier work
[9] = Trappe et al. 2002; cited from earlier work
[10] = individual subjects 1-7, after 42 days
[11] = individual subjects 1-7, after 42 days, DEXA
[12] = mean of 7 subjects, after 42 days, P < 0.05 vs before
[13] = after vs before 42-day treatment
[14] = one basketball player, after 42-day treatment

Question: Which results are given for `CC(C)CC(O)C(=O)O` (racemic) [HICA, DL-α-hydroxy-isocaproic acid]?
Answer: Whole body weight, After HICA [1]: 79.1 kilograms and 88.1 kilograms and 75.2 kilograms and 77.6 kilograms and 79.3 kilograms and 79 kilograms and 85.7 kilograms; adverse effects ([2]; 42-day treatment, 7 top athletes): without any adverse effects; pain, stiffness and aches in muscles felt during and after the training sessions (subjects' reports) ([2]; all 7 subjects, 42-day treatment): abolishment of pain, stiffness and aches in muscles; subjects reporting enhanced power performance ([2]; subjective, after the treatment with HICA): 6 out of 7; change of bone weight (DEXA) ([3]; 42-day treatment, 7 subjects): not changed; change of total soft tissue mass (total weight - bone weight) ([3]; 42-day treatment, P<0.05, paired t-test): increased significantly; change of soft tissue masses of all extremities and trunk ([3]; 42-day treatment, P<0.05 and P<0.001, respectively): increased significantly; Total weight of soft tissue in extremities, After HICA [3, 10]: 33.2 kilograms and 35.7 kilograms (2×) and 34.7 kilograms and 38.5 kilograms and 35.2 kilograms and 39.0 kilograms; Total weight of soft tissue in trunk, After HICA [3, 10]: 38.0 kilograms and 38.3 kilograms and 39.7 kilograms and 40.4 kilograms and 43.1 kilograms and 39.8 kilograms and 44.8 kilograms; Bone weight, After HICA [3, 11]: 4.1 kilograms (2×) and 4.4 kilograms and 4.0 kilograms (2×) and 3.6 kilograms and 3.9 kilograms; Soft tissue weight, After HICA [3, 11]: 75.0 kilograms and 83.7 kilograms and 71.2 kilograms and 74.0 kilograms and 75.4 kilograms and 75.1 kilograms and 81.6 kilograms; Total weight of soft tissue in trunk, After HICA, mean ([3]; mean of 7 subjects, after 42 days, P < 0.001 vs before): 40.6 kilograms; Soft tissue weight, After HICA, mean [3, 12]: 76.6 kilograms; Total weight of soft tissue in extremities, After HICA, mean [3, 12]: 36.0 kilograms; Whole body weight, After HICA, mean [3, 12]: 80.57 kilograms; Bone weight, After HICA, mean ([3]; mean of 7 subjects, after 42 days, nonsignificant vs before): 4.0 kilograms; mean weight gain during the treatment period ([3]; mean+/-SD, 7 subjects, 42-day treatment, P<0.05 paired t-test): 0.8 kg and 0.84 ± 1.0 kg; B-Erythrocytes, After HICA, mean ([4]; NS): 4.9 E12/l; B-Hematocrite, After HICA, mean ([4]; NS): 42.6%; B-Hemoglobin, After HICA, mean ([4]; NS): 149.1 g/L; B-Leucocytes, After HICA, mean ([4]; NS): 5.7 E9/l; E-MCH, After HICA, mean ([4]; NS): 30.4 pg; E-MCHC, After HICA, mean ([4]; NS): 347.9 g/L; E-MCV, After HICA, mean ([4]; NS): 87.4 fL; S-Alanine amino transferase, After HICA, mean ([4]; NS): 31.6 U/l; fS-Creatinine, After HICA, mean ([4]; NS): 89.2 µM; heart rate, After HICA, mean ([4]; NS): 62.0 min⁻¹; diastolic blood pressure, After HICA, mean ([4]; P < 0.01 vs before): 75.7 mmHg; systolic blood pressure, After HICA, mean ([4]; P < 0.05 vs before): 139.7 mmHg; solubility [5]: soluble in water and alcohols; exercise related muscle aches and pains (subjective report) ([6]; 42 days): disappearance of all exercise related muscle aches and pains; laboratory tests, e.g. blood pressure, heart rate or blood analyses ([6]; data not shown): no changes; LD50 (mice): 650 mg/kg; gain of lean body mass during the treatment ([7]; DEXA, one basket ball player, 42 days): 2.65 kg; bone, Change [7, 13]: +0.0 g; fat, Change [7, 13]: 0.3 kg; lean, extremities, Change [7, 13]: 1.6 kg; lean, other, Change [7, 13]: +0.0 g; lean, total, Change [7, 13]: +2.7 g; lean, trunk, Change [7, 13]: 1 kg; weight, Change [7, 13]: 3 kg; bone, After HICA [7, 14]: 4.1 kg; fat, After HICA [7, 14]: 8.1 kg; lean, extremities, After HICA [7, 14]: 34.8 kg; lean, other, After HICA [7, 14]: 4.3 kg; lean, total, After HICA [7, 14]: 74.4 kg; lean, trunk, After HICA [7, 14]: 35.45 kg; weight, After HICA [7, 14]: 86.6 kg

Question: For `CC(=O)Oc1ccccc1C(=O)O` [aspirin], which “effect on delayed-onset muscle soreness induced by eccentric exercise” value (shortened to “effect … by eccentric exercise”) [8] is on record?
Answer: neither aspirin, paracetamol nor codeine had a beneficial effect

Question: For `COc1ccc2c3c1O[C@H]1[C@@H](O)C=C[C@H]4[C@@H](C2)N(C)CC[C@@]341` [codeine], which “effect … by eccentric exercise” value [8] is on record?
Answer: neither aspirin, paracetamol nor codeine had a beneficial effect

Question: Which “effect on eccentric resistant training induced muscle soreness” value [9] does the source give for `CC(C)Cc1ccc(C(C)C(=O)O)cc1` (centres unmarked) [ibuprofen] here?
Answer: Neither ibuprofen nor paracetamol reduced eccentric resistant training induced muscle soreness

Question: For `CC(=O)Nc1ccc(O)cc1` [paracetamol], which “effect … by eccentric exercise” value [8] is on record?
Answer: neither aspirin, paracetamol nor codeine had a beneficial effect

Question: What about the “effect on eccentric resistant training induced muscle soreness” value [9] of the same compound?
Answer: Neither ibuprofen nor paracetamol reduced eccentric resistant training induced muscle soreness

From patent US20080108698A1, “Nutrient Supplement and Use of the Same” (OY ELMOMED LTD, priority 2004, published 2008)
